Reference: US12157778B2, “Peptides for activation of cell signaling in osteoprogenitor cells” (The Regents of the University of California, priority 2018, dated 2024)

Key:
[1] = In vivo anabolic effects, 4-month-old mice, 5 μg/kg s.c. 5×/week for 21 days; conditions: for increase in femoral trabecular bone volume: vs PBS, YLL8 5 μg/kg, hPTH (1-34) 25 μg/kg
Procedure: FIGS. 10A-10D show the effects of YLL8 on bone formation in vivo. […] All mice received Alizarin red and Calcein at −7 and −2 days before euthanization.
Four-month-old female and male mice were treated with PBS control, YLL3 at 5 μg/kg, YLL8 at 5 μg/kg, or PTH at 25 μg/kg, sc., 5×/week for 28 days (n=4-6/group). Trabecular bone volume was obtained by micro CT scans at the distal femoral metaphysis. Osteocalcin and CTX-1 were measured at the serum.
In another similar study to determine whether YLLs would affect bone metabolism in vivo, YLL3 and YLL8 were injected into 4-month-old female and male mice at 5 μg/kg subcutaneously ([…]). hPTH (1-34) was injected s.c. at 25 μg/kg, 5×/week as a positive control. […] Both YLL8 and hPTH (1-34) increased femoral trabecular bone volume by approximately 130% in the female mice, compared to the PBS-treated mice. In the male mice, YLL8 increase femoral trabecular bone volume by approximately 70%, and hPTH (1-34) increased femoral trabecular bone volume by approximately 30% (FIG. 10A). Mineral apposition rate, a parameter corresponding to osteoblast activity, was increased by more than 70% in the females and about 30% in the males, resulting in an overall increase in surface-based bone formation rate (FIGS. 10A, 10B). The anabolic effect of YLLs was confirmed by increased trabecular bone mass measured at the distal femur metaphysis by micro CT and serum level of osteocalcin (FIG. 11).

[2] = Alendronate-conjugated peptides on bone metabolism in 2-month-old female mice; assay type: in vivo; conditions: at the two doses used
Procedure: FIGS. 15A-15C show two-month-old female mice treated with PBS control; YLL3-Aln or YLL8-Aln at 100 […], subcutaneously, once every two weeks for 2 doses; or YLL3-Aln or YLL8-Aln at 500 m/kg, one IV dose. Mice were euthanized at 28 days (n=4-5/group).
Trabecular bone formation was measured in the distal femoral metaphysis. *, p<0.05 vs PBS. Arrows show double labeled bone surfaces.
Next, the effects of alendronate-conjugated peptides on bone metabolism were evaluated. Two-month-old female mice were treated with PBS control, YLL3-Ale or YLL8-Ale at 100 μg/kg (25 nmol) or 300 μg/kg (75 nmol), subcutaneously, once every other week, or with one IV dose of 500 μg/kg. Two injections were given per mouse. The total cumulative doses were between 200 and 600 μg/kg/month (25-150 nmol), respectively. Alendronate concentration was approximately 1/10-⅕ of the compound. […] In contrast, YLL8-Ale at the 300 μg/kg×2 SC doses or 500 μg/kg×1 IV dose increased trabecular bone volume by more than 20% (p<0.05 vs. PBS) which was associated with increased trabecular thickness (30%, p<0.05 vs. PBS) (FIG. 15A and FIG. 15B) and number (28%, p<0.05 vs. PBS). Both 100 μg/kg and 300 μg/kg doses of YLL8-Ale increased cortical bone volume by approximately 16% and cortical thickness by approximately 15% (FIG. 15C).

For CC[C@H](C)[C@H](NC(=O)[C@H](CCC(=O)O)NC(=O)[C@H](CO)NC(=O)[C@@H](NC(=O)[C@@H](N)CO)C(C)C)C(=O)N[C@@H](CCC(N)=O)C(=O)N[C@@H](CC(C)C)C(=O)N[C@@H](CCSC)C(=O)N[C@@H](Cc1cnc[nH]1)C(=O)N[C@@H](CC(N)=O)C(=O)N[C@@H](CC(C)C)C(=O)NCC(=O)N[C@@H](CCCCN)C(=O)N[C@@H](Cc1cnc[nH]1)C(=O)N[C@@H](CC(C)C)C(=O)N[C@@H](CC(N)=O)C(=O)N[C@@H](CO)C(=O)N[C@@H](CCSC)C(=O)N[C@@H](CCC(=O)O)C(=O)N[C@@H](CCCN=C(N)N)C(=O)N[C@H](C(=O)N[C@@H](CCC(=O)O)C(=O)N[C@@H](Cc1c[nH]c2ccccc12)C(=O)N[C@@H](CC(C)C)C(=O)N[C@@H](CCCN=C(N)N)C(=O)N[C@@H](CCCCN)C(=O)N[C@@H](CCCCN)C(=O)N[C@@H](CC(C)C)C(=O)N[C@@H](CCC(N)=O)C(=O)N[C@@H](CC(=O)O)C(=O)N[C@H](C(=O)N[C@@H](Cc1cnc[nH]1)C(=O)N[C@@H](CC(N)=O)C(=O)N[C@@H](Cc1ccccc1)C(=O)O)C(C)C)C(C)C [hPTH (1-34), Teriparatide], which “increase in femoral trabecular bone volume” value ([1]; female mice) is on record?
Its value is “approximately 130%”.

What about the “increase in femoral trabecular bone volume” value ([1]; male mice) of the same compound?
The value was “approximately 30%”.

Which “body weights and visible side-effects” value ([1]; 5 μg/kg s.c., daily injection for 21 days) does the source give for Cc1ccccc1NC(=O)Nc1ccc(CC(=O)N[C@@H](CCCCNC(=O)CCc2cccnc2)C(=O)N[C@@H](CCCC(=O)O)C(=O)NC2(C(N)=O)CCCCC2)cc1 [YLL8] here?
Its value is “did not change body weights or cause any visible side-effects”.

For Cc1ccccc1NC(=O)Nc1ccc(CC(=O)N[C@@H](CCCNC(N)=O)C(=O)N[C@@H](CCC(=O)O)C(=O)N[C@@H](CO)C(=O)N[C@H](C(=O)NCCOCCOCCNC(=O)CCC(=O)NCCOCCOCCNC(=O)CCC(=O)N[C@@H](CCCCNC(=O)[C@H](N)CSC2CC(=O)N(CC3CCC(C(=O)NCCCC(O)(P(=O)(O)O)P(=O)(O)O)CC3)C2=O)C(N)=O)C(C)C)cc1 (stereo partly shown) [YLL3-Ale], which “bone formation or bone mass compared to PBS control” value [2] is on record?
The value was “failed to achieve statistically significant differences”.
